Results reported in ChEMBL document CHEMBL1125711, “Flavins as potential antimalarials. 2. 3-Methyl-10-(substituted-phenyl) flavins” (J Med Chem, 1991).

These compounds were tested on Mus musculus (assay: Increase in mean survival days was determined in mice after ip administration of 10 mg/kg). Details: route intraperitoneal.
Type: functional
For `Cn1c(=O)nc2n(-c3cc(Cl)ccc3Cl)c3ccccc3nc-2c1=O`, the Mean survival days was 0 days. Work on `Cn1c(=O)nc2n(-c3ccc(S(C)(=O)=O)cc3)c3ccccc3nc-2c1=O` yielded a Mean survival days of 0 days. `Cc1cc(Cl)cc(-n2c3nc(=O)n(C)c(=O)c-3nc3ccccc32)c1` was tested, and the Mean survival days was 0.2 days. For `COc1cc(OC)cc(-n2c3nc(=O)n(C)c(=O)c-3nc3ccccc32)c1`, the Mean survival days was 0 days. `CCc1ccccc1-n1c2nc(=O)n(C)c(=O)c-2nc2ccccc21` showed a Mean survival days of 0 days.

The compounds below were run on Mus musculus (assay: Increase in mean survival days was determined in mice after ip administration of 15 mg/kg). Details: route intraperitoneal.
Type: functional
Compound `Cc1cc(Cl)cc(-n2c3nc(=O)n(C)c(=O)c-3nc3ccccc32)c1` has a Mean survival days of 0.5 days.

What follows are compounds tested on Mus musculus (assay: Increase in mean survival days was determined in mice after ip administration of 20 mg/kg). Details: route intraperitoneal.
Type: functional
`Cc1cc(Cl)cc(-n2c3nc(=O)n(C)c(=O)c-3nc3ccccc32)c1` showed a Mean survival days of 1 days.

Each compound was assayed on Mus musculus (assay: Increase in mean survival days was determined in mice after ip administration of 20 mg/kg; toxic). Details: route intraperitoneal.
Type: functional
In the case of `CCc1ccccc1-n1c2nc(=O)n(C)c(=O)c-2nc2ccccc21`, the Mean survival days is reported as -2 days.

The compounds below were run on Mus musculus (assay: Increase in mean survival days was determined in mice after ip administration of 25 mg/kg; toxic). Details: route intraperitoneal.
Type: functional
Compound `CCc1ccccc1-n1c2nc(=O)n(C)c(=O)c-2nc2ccccc21` has a Mean survival days of -2 days.

These compounds were tested on Mus musculus (assay: Increase in mean survival days was determined in mice after ip administration of 30 mg/kg). Details: route intraperitoneal.
Type: functional
Work on `Cn1c(=O)nc2n(-c3cc(Cl)ccc3Cl)c3ccccc3nc-2c1=O` yielded a Mean survival days of 0 days. For `Cn1c(=O)nc2n(-c3ccc(S(C)(=O)=O)cc3)c3ccccc3nc-2c1=O`, the Mean survival days was 0.2 days. With `COc1cc(OC)cc(-n2c3nc(=O)n(C)c(=O)c-3nc3ccccc32)c1` the Mean survival days was 0 days.

These compounds were tested on Mus musculus (assay: Increase in mean survival days was determined in mice after ip administration of 40 mg/kg). Details: route intraperitoneal.
Type: functional
In the case of `Cn1c(=O)nc2n(-c3ccc(S(C)(=O)=O)cc3)c3ccccc3nc-2c1=O`, the Mean survival days is reported as -0.5 days.

What follows are compounds tested on Mus musculus (assay: Increase in mean survival days was determined in mice after ip administration of 50 mg/kg). Details: route intraperitoneal.
Type: functional
Work on `COc1cc(OC)cc(-n2c3nc(=O)n(C)c(=O)c-3nc3ccccc32)c1` yielded a Mean survival days of 0 days.

The compounds below were run on Mus musculus (assay: Increase in mean survival days was determined in mice after ip administration of 50 mg/kg; toxic). Details: route intraperitoneal.
Type: functional
For `Cn1c(=O)nc2n(-c3ccc(S(C)(=O)=O)cc3)c3ccccc3nc-2c1=O`, the Mean survival days was -0.8 days.

The compounds below were run on Mus musculus (assay: Increase in mean survival days was determined in mice after ip administration of 60 mg/kg). Details: route intraperitoneal.
Type: functional
`COc1cc(OC)cc(-n2c3nc(=O)n(C)c(=O)c-3nc3ccccc32)c1` gave a Mean survival days of 3 days.

The compounds below were run on Mus musculus (assay: (§1) Increase in mean survival days was determined in mice after ip administration of 70 mg/kg; toxic). Details: route intraperitoneal.
Type: functional
`Cn1c(=O)nc2n(-c3ccc(S(C)(=O)=O)cc3)c3ccccc3nc-2c1=O` showed a Mean survival days of -2 days.

Each compound was assayed on Mus musculus (assay: as §1). Details: in vivo.
Type: ADME, organism-based
Set-up: dose 70 mg/kg, route intraperitoneal
`Cn1c(=O)nc2n(-c3cc(Cl)ccc3Cl)c3ccccc3nc-2c1=O` gave a Mean survival days of -0.6 days.

Species: Mus musculus
Test: Effective dose required to obtain a parasitaemia of 40% 48 hours after treatment in mice
Type: functional
Details: not given
Work on `Cc1cc(Cl)cc(-n2c3nc(=O)n(C)c(=O)c-3nc3ccccc32)c1` yielded an ED40 of 85.7 µmol/kg. In the case of `COc1cc(OC)cc(-n2c3nc(=O)n(C)c(=O)c-3nc3ccccc32)c1`, the ED40 is reported as 219 µmol/kg.

What follows are compounds tested on Plasmodium vinckei vinckei (assay: Antimalarial activity against Plasmodium vinckei V52 on 10 mg/kg intraperitoneal dose). Details: not given.
Type: functional
For `Cn1c(=O)nc2n(-c3cc(Cl)ccc3Cl)c3ccccc3nc-2c1=O`, the Cured was 0%. For `Cn1c(=O)nc2n(-c3ccc(S(C)(=O)=O)cc3)c3ccccc3nc-2c1=O`, the Cured was 0%. Work on `Cc1cc(Cl)cc(-n2c3nc(=O)n(C)c(=O)c-3nc3ccccc32)c1` yielded a Cured of 0%. Compound `COc1cc(OC)cc(-n2c3nc(=O)n(C)c(=O)c-3nc3ccccc32)c1` has a Cured of 0%. `CCc1ccccc1-n1c2nc(=O)n(C)c(=O)c-2nc2ccccc21` showed a Cured of 0%.

These compounds were tested on Mus musculus (assay: Antimalarial activity was evaluated against Plasmodium vinckei V52 after intraperitoneal administration at dose 15 mg/kg). Details: not given.
Type: functional
Work on `Cc1cc(Cl)cc(-n2c3nc(=O)n(C)c(=O)c-3nc3ccccc32)c1` yielded a Cured of 60%.

Each compound was assayed on Mus musculus (assay: Antimalarial activity was evaluated against Plasmodium vinckei V52 after intraperitoneal administration at dose 20 mg/kg). Details: not given.
Type: functional
`Cc1cc(Cl)cc(-n2c3nc(=O)n(C)c(=O)c-3nc3ccccc32)c1` showed a Cured of 80%.

What follows are compounds tested on Mus musculus (assay: Antimalarial activity was evaluated against Plasmodium vinckei vinckei V52 after intraperitoneal administration at dose 25 mg/kg). Details: not given.
Type: functional
For `Cc1cc(Cl)cc(-n2c3nc(=O)n(C)c(=O)c-3nc3ccccc32)c1`, the Cured was 100%. For `CCc1ccccc1-n1c2nc(=O)n(C)c(=O)c-2nc2ccccc21`, the Cured was 0%.

These compounds were tested on Mus musculus (assay: Antimalarial activity was evaluated against Plasmodium vinckei vinckei V52 after intraperitoneal administration at dose 30 mg/kg). Details: not given.
Type: functional
For `Cc1cc(Cl)cc(-n2c3nc(=O)n(C)c(=O)c-3nc3ccccc32)c1`, the Cured was 100%.

What follows are compounds tested on Plasmodium vinckei vinckei (assay: Antimalarial activity against Plasmodium vinckei V52 on 30 mg/kg intraperitoneal dose). Details: not given.
Type: functional
`Cn1c(=O)nc2n(-c3cc(Cl)ccc3Cl)c3ccccc3nc-2c1=O` gave a Cured of 0%. `Cn1c(=O)nc2n(-c3ccc(S(C)(=O)=O)cc3)c3ccccc3nc-2c1=O` was tested, and the Cured was 0%.

These compounds were tested on Mus musculus (assay: Antimalarial activity was evaluated against Plasmodium vinckei vinckei V52 after intraperitoneal administration at dose 40 mg/kg). Details: not given.
Type: functional
With `Cc1cc(Cl)cc(-n2c3nc(=O)n(C)c(=O)c-3nc3ccccc32)c1` the Cured was 100%.

These compounds were tested on Mus musculus (assay: Antimalarial activity was evaluated against Plasmodium vinckei V52 after intraperitoneal administration at dose 40 mg/kg). Details: not given.
Type: functional
`Cn1c(=O)nc2n(-c3ccc(S(C)(=O)=O)cc3)c3ccccc3nc-2c1=O` was tested, and the Cured was 0%.

The compounds below were run on Mus musculus (assay: Antimalarial activity was evaluated against Plasmodium vinckei vinckei V52 after intraperitoneal administration at dose 50 mg/kg). Details: not given.
Type: functional
In the case of `Cc1cc(Cl)cc(-n2c3nc(=O)n(C)c(=O)c-3nc3ccccc32)c1`, the Cured is reported as 100%. Compound `COc1cc(OC)cc(-n2c3nc(=O)n(C)c(=O)c-3nc3ccccc32)c1` has a Cured of 0%.

What follows are compounds tested on Mus musculus (assay: Antimalarial activity was evaluated against Plasmodium vinckei V52 after intraperitoneal administration at dose 50 mg/kg). Details: not given.
Type: functional
Work on `Cn1c(=O)nc2n(-c3ccc(S(C)(=O)=O)cc3)c3ccccc3nc-2c1=O` yielded a Cured of 0%.

The compounds below were run on Mus musculus (assay: Antimalarial activity was evaluated against Plasmodium vinckei vinckei V52 after intraperitoneal administration at dose 60 mg/kg). Details: not given.
Type: functional
`COc1cc(OC)cc(-n2c3nc(=O)n(C)c(=O)c-3nc3ccccc32)c1` gave a Cured of 20%.

The compounds below were run on Mus musculus (assay: Antimalarial activity was evaluated against Plasmodium vinckei V52 after intraperitoneal administration at dose 70 mg/kg). Details: not given.
Type: functional
For `Cn1c(=O)nc2n(-c3cc(Cl)ccc3Cl)c3ccccc3nc-2c1=O`, the Cured was 0%.

The compounds below were run on Plasmodium vinckei vinckei (assay: Antimalarial activity against Plasmodium vinckei V52 on 70 mg/kg intraperitoneal dose). Details: not given.
Type: functional
`Cn1c(=O)nc2n(-c3ccc(S(C)(=O)=O)cc3)c3ccccc3nc-2c1=O` showed a Cured of 0%. Compound `Cc1cc(Cl)cc(-n2c3nc(=O)n(C)c(=O)c-3nc3ccccc32)c1` has a Cured of 100%. In the case of `COc1cc(OC)cc(-n2c3nc(=O)n(C)c(=O)c-3nc3ccccc32)c1`, the Cured is reported as 100%.

Each compound was assayed on Plasmodium vinckei vinckei (assay: Antimalarial activity against Plasmodium vinckei V52 after 20 mg/kg intraperitoneal dose). Details: not given.
Type: functional
For `COc1cc(OC)cc(-n2c3nc(=O)n(C)c(=O)c-3nc3ccccc32)c1`, the Cured was 0%. Work on `CCc1ccccc1-n1c2nc(=O)n(C)c(=O)c-2nc2ccccc21` yielded a Cured of 0%.
